Source: publication PMC10900215 (JACS Au, 2024)

Columns and labels:
[1] = tested on: m6A/A levels in polyadenylated RNA; assay: UPLC-MS/MS quantification of m6A/A in polyadenylated RNA in MOLM-13; type: cell-based, human; settings: MOLM-13, 2 μM, 24 h
Protocol: UPLC-MS/MS was performed as previously described.[28]
Briefly, MOLM-13 cells were seeded into 6 well plates at a density of 1 × 10^6 cells/mL in 2 mL of complete RPMI medium. Cells were treated with the indicated concentrations of compounds or DMSO control (final concentration 0.5% (v/v)) for 24 h. Following the incubation, cells were collected by centrifugation and washed once with PBS, and total RNA was extracted using 0.5 mL of GENEzol reagent according to the manufacturer’s instructions. The final volume of 50 μL of total RNA eluate was subjected to two rounds of purification using 25 μL of Sera-Mag magnetic oligo(dT) particles (Cytiva) per sample. The polyadenylated RNA was eluted with nuclease-free water in a final volume of 25 μL, and its concentration was determined using NanoDrop. One hundred nanograms of mRNA were digested to nucleosides and dephosphorylated in a one-pot reaction using 0.5 μL of nucleoside digestion mix (M0649S, NEB) in 25 μL of total reaction volume for 4 h at 37 °C. The samples were used for UPLC-MS/MS analysis without further purification steps. The data were plotted by using GraphPad Prism 9.

[2] = target: T1, Cereblon (CRBN) (Homo sapiens, UniProt Q96SW2); assay: Cellular thermal shift assay (CETSA) in MOLM-13, Cereblon; type: cell-based; settings: MOLM-13, 54 °C
T1 construct: endogenous in cells; host or cells: MOLM-13
T1 sequence (Q96SW2 whole entry): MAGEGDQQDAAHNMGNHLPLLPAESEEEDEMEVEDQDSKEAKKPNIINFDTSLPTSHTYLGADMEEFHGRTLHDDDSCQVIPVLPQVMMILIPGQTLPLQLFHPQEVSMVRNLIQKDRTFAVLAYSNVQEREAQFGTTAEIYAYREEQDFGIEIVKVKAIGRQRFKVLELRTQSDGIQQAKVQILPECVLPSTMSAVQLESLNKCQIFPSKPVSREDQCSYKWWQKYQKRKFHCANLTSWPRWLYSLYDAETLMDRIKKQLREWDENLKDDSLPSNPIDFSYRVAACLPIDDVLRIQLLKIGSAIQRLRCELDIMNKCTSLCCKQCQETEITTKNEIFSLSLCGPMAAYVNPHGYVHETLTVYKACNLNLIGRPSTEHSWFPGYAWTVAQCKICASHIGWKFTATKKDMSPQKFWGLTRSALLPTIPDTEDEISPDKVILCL

[3] = target: T2, METTL3 (Homo sapiens, UniProt Q86U44+Q96SW2); assay: In vitro ubiquitination assay, METTL3; type: biochemical; settings: 2 μM compound, 30 °C, 2 h
T2 construct: Human full-length METTL3-METTL14 was expressed and purified as described above; Human full-length cereblon-DDB1 and 6xHis-CUL4A-6xHis-RBX1 were coexpressed; StrepII (N); GFP (N); TEV site (N); made in house; host or cells: baculovirus/Sf9 insect cells (METTL3-METTL14, cereblon-DDB1, CUL4A-RBX1)
T2 sequence (Q86U44 whole entry): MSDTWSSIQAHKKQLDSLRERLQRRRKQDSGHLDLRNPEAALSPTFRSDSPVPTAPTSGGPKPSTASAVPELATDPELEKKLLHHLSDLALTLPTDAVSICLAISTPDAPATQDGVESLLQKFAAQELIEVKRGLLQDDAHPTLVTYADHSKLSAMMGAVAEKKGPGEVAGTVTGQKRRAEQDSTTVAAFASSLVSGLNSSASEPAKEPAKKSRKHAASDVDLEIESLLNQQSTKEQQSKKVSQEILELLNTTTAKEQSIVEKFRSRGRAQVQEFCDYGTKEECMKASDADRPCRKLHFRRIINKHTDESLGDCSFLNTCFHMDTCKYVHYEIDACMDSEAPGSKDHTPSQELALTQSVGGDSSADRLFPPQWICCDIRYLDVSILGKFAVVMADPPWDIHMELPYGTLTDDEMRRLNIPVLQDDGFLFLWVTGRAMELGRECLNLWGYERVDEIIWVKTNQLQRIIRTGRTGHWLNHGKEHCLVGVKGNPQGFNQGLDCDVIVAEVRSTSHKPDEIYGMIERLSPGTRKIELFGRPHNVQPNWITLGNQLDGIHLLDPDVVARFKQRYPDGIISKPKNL
T2 sequence (Q9HCE5 whole entry partner): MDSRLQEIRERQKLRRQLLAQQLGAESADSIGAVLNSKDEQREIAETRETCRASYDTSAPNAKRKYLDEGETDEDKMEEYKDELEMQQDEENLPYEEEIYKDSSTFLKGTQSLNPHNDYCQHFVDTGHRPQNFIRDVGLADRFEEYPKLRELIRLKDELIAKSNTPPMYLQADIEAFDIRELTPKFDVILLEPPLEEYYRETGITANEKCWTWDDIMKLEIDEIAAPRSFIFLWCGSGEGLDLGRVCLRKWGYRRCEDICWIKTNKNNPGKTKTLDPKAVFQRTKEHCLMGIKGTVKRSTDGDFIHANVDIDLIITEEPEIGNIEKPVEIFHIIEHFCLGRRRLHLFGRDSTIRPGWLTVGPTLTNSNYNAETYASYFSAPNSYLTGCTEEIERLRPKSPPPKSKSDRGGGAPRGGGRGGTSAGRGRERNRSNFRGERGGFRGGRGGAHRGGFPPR
T2 sequence (Q96SW2 whole entry): as the sequence (Q96SW2 whole entry) above
T2 sequence (Q16531 whole entry partner): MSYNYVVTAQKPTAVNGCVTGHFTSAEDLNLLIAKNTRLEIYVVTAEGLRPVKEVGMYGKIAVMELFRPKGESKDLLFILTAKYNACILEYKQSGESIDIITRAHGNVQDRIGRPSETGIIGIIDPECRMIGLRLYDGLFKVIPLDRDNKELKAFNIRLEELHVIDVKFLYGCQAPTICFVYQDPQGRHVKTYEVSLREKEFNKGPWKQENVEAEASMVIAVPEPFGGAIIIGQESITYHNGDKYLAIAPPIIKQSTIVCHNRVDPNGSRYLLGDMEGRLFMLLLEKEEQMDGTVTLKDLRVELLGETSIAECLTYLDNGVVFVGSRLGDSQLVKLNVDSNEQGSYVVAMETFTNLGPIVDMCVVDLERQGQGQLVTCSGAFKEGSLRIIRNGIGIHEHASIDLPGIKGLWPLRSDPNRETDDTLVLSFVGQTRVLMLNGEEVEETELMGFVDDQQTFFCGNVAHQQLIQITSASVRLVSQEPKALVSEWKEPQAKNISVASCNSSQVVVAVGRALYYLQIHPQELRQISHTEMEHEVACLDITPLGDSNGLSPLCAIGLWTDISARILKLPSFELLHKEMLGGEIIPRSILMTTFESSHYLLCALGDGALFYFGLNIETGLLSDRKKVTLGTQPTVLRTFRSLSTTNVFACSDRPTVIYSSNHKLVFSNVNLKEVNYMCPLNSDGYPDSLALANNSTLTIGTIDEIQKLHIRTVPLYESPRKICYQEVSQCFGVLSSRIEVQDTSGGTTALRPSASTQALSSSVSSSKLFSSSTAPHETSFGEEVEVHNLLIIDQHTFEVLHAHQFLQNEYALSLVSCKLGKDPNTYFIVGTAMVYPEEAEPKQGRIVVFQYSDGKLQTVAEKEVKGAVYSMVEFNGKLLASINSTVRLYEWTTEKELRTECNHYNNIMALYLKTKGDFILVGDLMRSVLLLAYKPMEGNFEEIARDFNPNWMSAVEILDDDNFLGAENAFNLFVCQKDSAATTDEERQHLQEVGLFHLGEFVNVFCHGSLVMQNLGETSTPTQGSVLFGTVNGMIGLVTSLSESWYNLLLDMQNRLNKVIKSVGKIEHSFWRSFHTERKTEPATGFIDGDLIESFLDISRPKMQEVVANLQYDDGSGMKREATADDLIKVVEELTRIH
T2 sequence (Q13619 whole entry partner): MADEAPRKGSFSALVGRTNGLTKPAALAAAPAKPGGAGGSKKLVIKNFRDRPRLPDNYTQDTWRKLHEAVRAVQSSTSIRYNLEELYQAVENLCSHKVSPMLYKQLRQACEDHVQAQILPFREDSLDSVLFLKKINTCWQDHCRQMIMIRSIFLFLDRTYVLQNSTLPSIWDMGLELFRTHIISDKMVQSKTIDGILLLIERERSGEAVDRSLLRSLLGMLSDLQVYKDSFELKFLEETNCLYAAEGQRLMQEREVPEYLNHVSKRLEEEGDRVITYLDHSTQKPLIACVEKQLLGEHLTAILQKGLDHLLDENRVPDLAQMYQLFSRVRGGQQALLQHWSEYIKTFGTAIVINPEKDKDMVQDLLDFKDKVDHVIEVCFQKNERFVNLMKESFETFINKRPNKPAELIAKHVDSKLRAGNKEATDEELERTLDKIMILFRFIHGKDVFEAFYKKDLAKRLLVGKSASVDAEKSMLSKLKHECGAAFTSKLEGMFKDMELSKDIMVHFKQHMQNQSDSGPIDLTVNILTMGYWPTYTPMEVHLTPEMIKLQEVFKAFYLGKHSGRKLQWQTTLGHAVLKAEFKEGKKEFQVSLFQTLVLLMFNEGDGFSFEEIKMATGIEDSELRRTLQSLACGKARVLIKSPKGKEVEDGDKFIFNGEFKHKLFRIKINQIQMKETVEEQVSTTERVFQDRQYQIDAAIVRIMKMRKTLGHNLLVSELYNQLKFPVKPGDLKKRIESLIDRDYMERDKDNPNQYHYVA
T2 sequence (P62877 whole entry partner): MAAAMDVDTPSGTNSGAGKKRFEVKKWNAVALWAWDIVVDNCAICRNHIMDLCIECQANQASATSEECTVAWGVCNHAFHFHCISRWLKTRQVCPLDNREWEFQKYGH
Protocol: (§1) For the cell-free in vitro ubiquitination of METTL3-METTL14 purified E1, E2, ubiquitin, CUL4A-RBX1, Cereblon-DDB1, and METTL3-METTL14 were used. Human full-length METTL3-METTL14 was expressed and purified as described above. […] Purified recombinant human UBE1 E1 (E-305–025) was purchased from R&D Systems, UbcH5a E2 (23–029) from Merck and ubiquitin (SBB-UP0013) from South Bay Bio. For the ubiquitination reaction, components were mixed to final concentrations of 0.06 μM UBE1, 1.96 μM UbcH5a, 39 μM ubiquitin, 0.33 μM CUL4A-RBX1, 0.33 μM Cereblon-DDB1, 0.5 μM METTL3-METTL14, and different concentrations of compound 14 or me-14 (0, 2, 8, or 32 μM) in reaction buffer (50 mM Tris-HCl pH 7.6, 5 mM MgCl2, 0.2 mM CaCl2, 1 mM DTT, 100 mM NaCl, 0.01% BSA, 0.01% Triton X-100). The final reaction volume was 15 μL. After the addition of 2 mM ATP (or the equal volume of water for the control without ATP), the reaction mixture was incubated for 2 h at 30 °C. […] The signals were quantified by using the Image Studio Lite software. To determine the percentage of ubiquitinated METTL3, the fraction of unmodified METTL3 was calculated by dividing the signal of the band assigned to unmodified METTL3 by the signal of the area containing both the unmodified and (poly)ubiquitinated METTL3 and normalizing to the control without ATP. […]

[4] = tested on: METTL14; assay: In vitro ubiquitination assay, METTL14; type: biochemical, human; settings: 2, 8, 32 μM compound, 30 °C, 2 h
Protocol: as §1

[5] = target: T3, METTL3 (Homo sapiens, UniProt Q86U44); assay: Cellular thermal shift assay (CETSA) in MOLM-13, METTL3; type: cell-based; settings: MOLM-13, 54 °C
T3 construct: METTL3–14 degradation up to 70% of the endogenous level; endogenous in cells; host or cells: MOLM-13, PC3, DU145
T3 sequence (Q86U44 2-580 limits assumed): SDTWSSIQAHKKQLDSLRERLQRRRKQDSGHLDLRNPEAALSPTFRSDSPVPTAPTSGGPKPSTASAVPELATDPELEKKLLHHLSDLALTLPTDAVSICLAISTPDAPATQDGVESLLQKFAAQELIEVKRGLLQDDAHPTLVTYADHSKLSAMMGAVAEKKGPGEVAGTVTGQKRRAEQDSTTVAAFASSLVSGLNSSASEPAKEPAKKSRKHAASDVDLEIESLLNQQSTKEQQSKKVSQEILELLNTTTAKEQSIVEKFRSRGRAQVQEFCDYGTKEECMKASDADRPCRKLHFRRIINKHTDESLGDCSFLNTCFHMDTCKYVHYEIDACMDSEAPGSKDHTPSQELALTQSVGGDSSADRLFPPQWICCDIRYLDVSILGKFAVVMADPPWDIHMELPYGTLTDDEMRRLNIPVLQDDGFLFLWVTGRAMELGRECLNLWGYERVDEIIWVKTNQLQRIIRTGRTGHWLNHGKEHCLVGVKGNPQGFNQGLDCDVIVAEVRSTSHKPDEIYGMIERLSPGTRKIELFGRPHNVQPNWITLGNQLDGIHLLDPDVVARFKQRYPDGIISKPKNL
T3 sequence (Q9HCE5 whole entry partner): as the sequence (Q9HCE5 whole entry partner) above
Protocol: One million of MOLM-13 cells were suspended in 100 μL of PBS (10010023, Thermo Fisher Scientific) containing 2× protease inhibitor cocktail (11697498001, Roche), for each condition tested. Cells were incubated with compounds or DMSO control (1% (v/v)) for 1 h at 37 °C. They were then heat treated at 54 °C in a thermoblock for 3 min, followed by cooling to room temperature (3 min). Next, samples were lysed by threefreeze–thaw cycles in liquid nitrogen and centrifuge at 16000 g for 30 min, 4 °C. Equal volumes of control and tested samples (12 μL) were analyzed by Western blot. The changes in the amount of METTL3 protein (after normalization for β-actin and/or GAPDH) were monitored by performing densitometry in Image Studio Lite software and analyzed in GraphPad Prism 9.

Q: For `CC1(C)CCN(Cc2cc(F)c(N3CC(=O)NC4(CCN(c5cc(NCC6CCN(C(=O)CCCNc7cccc8c7C(=O)N(C7CCC(=O)NC7=O)C8=O)CC6)ncn5)CC4)C3)cc2F)CC1` (centres unmarked) [Compound 22], which m6A/A levels [1] is on record?
A: slight reduction

Q: What does the source list for `CC1(C)CCN(Cc2cc(F)c(N3CC(=O)NC4(CCN(c5cc(NCc6cccc(CNC(=O)CCCNc7cccc8c7C(=O)N(C7CCC(=O)NC7=O)C8=O)c6)ncn5)CC4)C3)cc2F)CC1` (centres unmarked) [Compound 14]?
A: stabilization of Cereblon (CETSA) [2]: visible; ubiquitination level of METTL3 [3]: ~40%; ubiquitination of METTL14 [4]: not as pronounced; stabilization of METTL3 (CETSA) [5]: stabilize METTL3 in a concentration-dependent manner
